Reference: patent US12240812B2, “Compound for inhibiting PGE2/EP4 signaling transduction inhibiting, preparation method therefor, and medical uses thereof” (Keythera (Suzhou) Pharmaceuticals Co. Ltd., priority 2019, dated 2025)
Where two headings read alike, the source gives them in different places.

What was measured:
[1] = Clearance assay in liver cells; type: in vitro ADME; settings: cryopreserved mouse liver cells (hepatocytes); mouse (ICR/CD-1, male) cryopreserved liver cells, 0-120 min
Protocol: • Liver cell type: mouse • Product catalog: M00505 • Species: ICR/CD-1 • Sex: male • Source: BioreoclmationIVT Procedures: • 1. Preparation of working solution • a. 10 mM stock solutions of test compound and positive control were prepared in an appropriate solvent (DMSO). • b. 198 μL of 50% acetonitrile/50% water and 2 μL of 10 mM solution were mixed in a separate conical tube to obtain 100 μM test compound and positive control. • 2. Preparation of liver cells • a. The incubation medium and liver cell thawing medium were placed in a 37° C. water bath, and heated for at least 15 minutes before use. • b. A vial of cryopreserved liver cells was transferred from the storage, ensuring that the vial was kept at a low temperature until the thawing process was conducted. The cells were thawed by placing the vial in a 37° C. water bath and gently shaking the vial for 2 minutes. After completion of the thawing, the vial was sprayed with 70% ethanol and transferred to a biological safety cabinet. • c. The liver cells were transferred to a 50 mL conical tube containing the thawing medium by a large-bore pipette tip. The 50 mL conical tube was placed in a centrifuge and centrifuged at 100 g for 10 minutes. After completion of the centrifugation, the thawing medium was sucked out, and the liver cells were resuspended in enough medium to produce 1.5×10^6 cells/mL. • 3. Procedures of stability assay • a. 198 μL of liver cells were pipetted into each well of a 96-well uncoated plate. The plate was placed in an incubator to warm up the liver cells for 10 minutes. • b. 2 μL of 100 μM test compound or positive control was pipetted into each well of the 96-well uncoated plate to start the reaction. The plate was placed into the incubator at the set time point. • c. The contents of the wells were transferred in 25 μL of aliquots at the time points of 0, 15, 30, 60, 90 and 120 minutes. The aliquot was mixed with 6 volumes (150 μL) of acetonitrile containing internal standard IS (100 nM alprazolam, 200 nM caffeine, and 100 nM tolbutamide) to stop the reaction. The sample was vortex-mixed for 5 minutes, and centrifuged at 3220 g for 45 minutes. An aliquot of 100 μL of supernatant was diluted with 100 μL of ultrapure water, and the mixture was used for LC/MS/MS analysis. All incubations were performed in duplicate. • d. Data analysis
All calculations were performed using Microsoft Excel. The peak area was determined by the extracted ion chromatogram. The in vitro half-life (t½) of the parent compound was determined by the regression analysis of the compound disappearance percentage versus time curve.
The in vitro half-life (t½) was determined by the slope value k: t½=0.693/k
The in vitro t½ (in minutes) was converted to in vitro intrinsic clearance (CLint, in μL/min/0.5×10^6 cells) by using the following equation (average of repeated determinations): […]

[2] = test system: PGE2/EP4 signal transduction in MCF7 cells; assay: Determination of MCF7 cAMP (PGE2-stimulated, HTRF); type: cell-based; settings: Homo sapiens
Protocol: • a) MCF7 cells (ATCC, 6000 cells/well/40 μl) were inoculated into a 384-well cell culture plate containing a medium (DMEM containing 10% FBS and 1×PS), and incubated overnight at 37° C. and 5% CO2. • b) The medium was removed, 40 μl/well of serum-free medium was added, and the cells were incubated at 37° C. and 5% CO2 for 5 hours. • c) The medium was replaced with 18 μL/well of HBSS buffer (Hepes 20 mM, 0.1% BSA, 500 μM IBMX). • d) The compound in DMSO was diluted (1/5 dilution, 9+0 dose). • e) 2 μL of the compound in d) was added to 98 μL of HBSS buffer. • f) 1 μL/well of the diluted compound in e) was added to the cells, with a final starting concentration of 1 μM, and the cells were incubated at 37° C. for 1 hour. • g) The cells were stimulated with 1 μL/well of PGE2 (10 mM DMSO stock solution) (final concentration: 10 nM, and DMSO final concentration: 0.2%), and incubated at 37° C. for 30 minutes. • h) After the incubation, 10 μL/well of cAMP-d2 and 10 μL/well of anti-cAMP were added, RT 1 h. • i) HTRF signals (665 nm/615 nm) were read on Envision. Data Analysis: • High control: 1 μM E7046 • Low control: DMSO • Background: 30 μL/well of lysis buffer+10 μL/well of anti-cAMP • Analytical data: original date—background Inhibition %: 100−100×(high control−analytical data)/(high control−low control)

EMT-6 breast tumor = assay: Compound 6 and anti-PD-1 antibody alone or in combination on EMT-6 breast tumor in mouse; type: in vivo
Protocol: (§1) Efficacy study on allograft tumor: each 6-week-old female BALB/c mouse was subcutaneously inoculated with 5×10^5 EMT-6 cancer cells. When the tumor reached about 60 to 80 mm^3, the tumor-bearing mice were randomly grouped to the vehicle group or treatment group. When administered alone or in combination, compound 6 was administered orally (p.o.) in a 0.5% MC suspension at a dose of 30 mg/kg, once a day. When administered alone or in combination, anti-PD-1 antibody (Invivomab anti-mouse PD-1 (CD279), Abcam) was administered intraperitoneally at a dose of 20 mg/kg on the first administration, and at a dose of 10 mg/kg on the following administrations once every 5 days. The mice in the vehicle group and PD-1 antibody-administered alone group were orally administered with distilled water every day, and the administration time was the same as that of the compound 6 group. The tumor volume and body weight were recorded 2 to 3 times a week.

CT-26 colorectal tumor [3] = assay: Inhibitory effect of compound 6 on CT-26 colorectal tumor in mouse; type: in vivo; settings: for effect on the growth of CT-26 tumor: administered alone, different doses (compound 6: 10, 30 or 150 mg/kg p.o. once a day); for effect on the body weight of mouse: CT-26 colorectal cancer model, FIG. 2
Protocol: Efficacy study on allograft tumor: each 6-week-old female BALB/c mouse was subcutaneously inoculated with 1×10^6 CT26 cancer cells (National Experimental Cell Resource Sharing Service Platform, Resource Number 3111CCCC). When the tumor reached about 60 to 80 mm^3, the tumor-bearing mice were randomly grouped to the vehicle group or treatment group. Compound 6 was administered orally (p.o.) in a 0.5% MC suspension at a dose of 10, 30 or 150 mg/kg, once a day. The mice in the vehicle group were orally administered with distilled water every day, and the administration time was the same as that of the compound 6 group. The tumor volume and body weight were recorded 2 to 3 times a week.

CT-26 colorectal tumor [4] = assay: Compound 6 and anti-PD-1 antibody alone or in combination on CT-26 colorectal tumor in mouse; type: in vivo
Protocol: as §1, with “1×10^6 CT26” for “5×10^5 EMT-6”, “30 or 150” for “30”, “5 mg/kg,” for “20 mg/kg on the first administration, and at a dose of 10 mg/kg on the following administrations”, “4 days, for a total of 3 times (Q4D×3).” for “5 days.”

[5] = MCF7 cells, 10 nM PGE2 stimulation, cAMP HTRF, read-out: MCF7 cAMP IC50
[6] = BALB/c mice, CT26 allograft, FIG. 1

Row | Compound | hepatocyte CLint at 1 µM [1] [µL/min/1e6 cells] | IC50 [2, 5] [nM] | further results
1 | O=C(NC1(C23CC(C(=O)O)(C2)C3)CC1)c1cccc2ccn(Cc3ccc(C(F)(F)F)cc3)c12 [Compound 1, 3-(1-(1-(4-(Trifluoromethyl)benzyl)-1H-indole-7-carboxamido)cyclopropyl)bicyclo[1.1.1]pentane-1-carboxylic acid] | 7.1 | 2.4 | –
2 | O=C(NC1(C23CC(C(=O)O)(C2)C3)CC1)c1cccc2ccn(Cc3ccc(-c4ccccc4)cn3)c12 [Compound 2, 3-(1-(1-((5-Phenylpyridin-2-yl)methyl)-1H-indole-7-carboxamido)cyclopropyl)bicyclo[1.1.1]pentane-1-carboxylic acid] | 19 | 0.89 | –
3 | O=C(NC1(C23CC(C(=O)O)(C2)C3)CC1)c1cccc2ccn(Cc3cc4ccccc4o3)c12 [Compound 6, 3-(1-(1-(Benzofuran-2-ylmethyl)-1H-indole-7-carboxamido)cyclopropyl)bicyclo[1.1.1]pentane-1-carboxylic acid] | 2.9 | 1.1 | effect on the body weight of mouse (EMT-6 breast tumor; EMT-6 model, compound 6 alone or in combination with anti-PD-1 antibody, FIG. 6): no significant effect; effect on the EMT-6 breast tumor in mouse (EMT-6 breast tumor; compound 6 30 mg/kg p.o. once a day, alone or in combination with anti-PD-1 antibody (20 mg/kg first, then 10 mg/kg i.p. every 5 days), FIG. 5): good inhibitory effect; effect on the growth of CT-26 tumor (CT-26 colorectal tumor [3]; [6]): significant inhibitory effect; effect on CT-26 tumor growth compared with E7046 (CT-26 colorectal tumor [3]; BALB/c mice, CT26 allograft, at the same dose, FIG. 1): significantly better than E7046; effect on the body weight of mouse (CT-26 colorectal tumor [3]): no significant effect; effect on the body weight of mouse (CT-26 colorectal tumor [4]; CT-26 model, compound 6 alone or in combination with anti-PD-1 antibody, FIG. 4): no significant effect; effect on the growth of CT-26 tumor in mouse (CT-26 colorectal tumor [4]; compound 6 30 or 150 mg/kg p.o. once a day, alone or in combination with anti-PD-1 antibody 5 mg/kg i.p. Q4Dx3, FIG. 3): good inhibitory effect
4 | O=C(NC1(C23CC(C(=O)O)(C2)C3)CC1)c1cc(Cl)cc2ccn(Cc3ccc(-c4ccccc4)cn3)c12 [Compound 7, 3-(1-(5-Chloro-1-((5-phenylpyridin-2-yl)methyl)-1H-indole-7-carboxamido)cyclopropyl)bicyclo[1.1.1]pentane-1-carboxylic acid] | 34 | 0.13 | –
5 | O=C(NC1(C23CCC(C(=O)O)(CC2)CC3)CC1)c1cccc2ccn(Cc3ccc(C(F)(F)F)cc3)c12 [Compound 9, 4-(1-(1-(4-(Trifluoromethyl)benzyl)-1H-indole-7-carboxamido)cyclopropyl)bicyclo[2.2.2]octane-1-carboxylic acid] | 20 | 1.1 | –
6 | O=C(NC1(C23CC(C(=O)O)(C2)C3)CC1)c1cccc2ccn(Cc3cc4cc(F)ccc4o3)c12 [Compound 21, 3-(1-(1-((5-Fluorobenzofuran-2-yl)methyl)-1H-indole-7-carboxamido)cyclopropyl)bicyclo[1.1.1]pentane-1-carboxylic acid] | 1.93 | 0.9 | –
7 | O=C(NC1(C23CC(C(=O)O)(C2)C3)CC1)c1cncc2ccn(Cc3cc4ccccc4o3)c12 [Compound 25, 3-(1-(1-(benzofuran-2-ylmethyl)-1H-pyrrolo[3,2-c]pyridine-7-carboxamido)cyclopropyl)bicyclo[1.1.1]pentane-1-carboxylic acid] | 1.35 | 1.5 | –
8 | C[C@H](NC(=O)c1c(C(F)F)nn(C)c1Oc1cccc(C(F)(F)F)c1)c1ccc(C(=O)O)cc1 [Compound E7046, (S)-4-(1-(3-(difluoromethyl)-1-methyl-5-(3-(trifluoromethyl)phenoxy)-1H-pyrazole-4-carboxamido)ethyl)benzoic acid, reference compound] | 20.1 | – | effect on the growth of CT-26 tumor (CT-26 colorectal tumor [3]; [6]): significant inhibitory effect; effect on the body weight of mouse (CT-26 colorectal tumor [3]): no significant effect; IC50 ([2]; MCF7, read-out: MCF7 cAMP IC50): 11.2 nM
9 | O=C(O)c1ccc(C2(NC(=O)c3cccc4ccn(Cc5ccc(C(F)(F)F)cc5)c34)CC2)cc1 [MF-766, 4-(1-(1-(4-(trifluoromethyl)benzyl)-1H-indole-7-carboxamido)cyclopropyl)benzoic acid, reference compound] | 12.5 | – | IC50 ([2]; MCF7, read-out: MCF7 cAMP IC50): 1.3 nM
